The results in this text go back to patent publication US20140045856A1, “4-Methyl-2,3,5,9,9b-pentaaza-cyclopenta[a]naphthalenes” (BOEHRINGER INGELHEIM INTERNATIONAL GMBH, priority 2012, published 2014).

In experiment [1] the target is PDE2A (Homo sapiens, UniProt O00408). Nature of the experiment: PDE 2A assay with fluorescent substrate (IMAP, fluorescence polarization). The class given is biochemical. As to conditions: read-out: PDE2 IC50. For orientation: Fluorescence polarisation rises when a labelled molecule tumbles more slowly, as on binding a larger partner.
Experiment [2] deals with PDE10 (Homo sapiens, UniProt Q9Y233). The experiment is described as follows: PDE10 assay with fluorescent substrate (IMAP, fluorescence polarization). The class given is biochemical.
PDE10, sequence (Q9Y233 whole entry, species assumed): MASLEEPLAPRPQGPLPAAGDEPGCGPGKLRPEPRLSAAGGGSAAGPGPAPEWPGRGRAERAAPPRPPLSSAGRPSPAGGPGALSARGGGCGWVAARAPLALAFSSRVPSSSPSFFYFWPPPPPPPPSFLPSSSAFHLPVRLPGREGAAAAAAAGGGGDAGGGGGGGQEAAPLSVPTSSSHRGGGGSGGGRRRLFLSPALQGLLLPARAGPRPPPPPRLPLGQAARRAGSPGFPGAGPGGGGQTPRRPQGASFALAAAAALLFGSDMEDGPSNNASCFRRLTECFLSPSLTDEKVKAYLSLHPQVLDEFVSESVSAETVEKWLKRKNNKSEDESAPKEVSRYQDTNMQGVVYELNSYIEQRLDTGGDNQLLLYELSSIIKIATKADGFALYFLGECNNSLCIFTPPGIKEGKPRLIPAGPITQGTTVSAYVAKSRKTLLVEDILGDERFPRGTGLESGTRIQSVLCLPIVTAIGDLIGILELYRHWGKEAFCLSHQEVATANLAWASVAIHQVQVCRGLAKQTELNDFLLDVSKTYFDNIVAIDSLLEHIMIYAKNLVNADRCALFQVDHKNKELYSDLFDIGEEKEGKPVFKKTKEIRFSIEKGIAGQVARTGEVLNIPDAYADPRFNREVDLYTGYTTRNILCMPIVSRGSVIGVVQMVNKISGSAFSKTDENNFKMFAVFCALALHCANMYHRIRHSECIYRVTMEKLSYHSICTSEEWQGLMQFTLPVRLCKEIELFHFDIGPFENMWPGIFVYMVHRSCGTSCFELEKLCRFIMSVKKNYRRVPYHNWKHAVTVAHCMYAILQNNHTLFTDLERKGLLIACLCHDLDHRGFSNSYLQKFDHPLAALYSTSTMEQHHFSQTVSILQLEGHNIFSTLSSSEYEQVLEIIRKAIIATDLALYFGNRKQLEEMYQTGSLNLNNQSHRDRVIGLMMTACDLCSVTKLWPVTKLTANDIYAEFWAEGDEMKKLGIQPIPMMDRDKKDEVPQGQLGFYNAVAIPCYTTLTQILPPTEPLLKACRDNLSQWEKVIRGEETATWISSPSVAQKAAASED
Excerpt: c) Phosphodiesterase (PDE) 2A and 10 Assay with Fluorescent Substrate
The PDE reaction cleaves cAMP to AMP. The IMAP system (Molecular Device) using fluorescence polarization (FP) as detection principle was used to measure enzyme activity. A fluorescent labeled cAMP was used as substrate for the reaction, generating a labeled AMP. The fluorescent AMP binds specifically to the large M(III)-based nano-particles which reduces the rotational speed of the substrate and thus increases its polarization.
The inhibition of PDE 2A or 10 enzyme activity was assessed using IMAP-Phosphodiesterase-cAMP fluorescence labeled substrate (Molecular Devices, Order No. R7506), IMAP TR-FRET screening express (Molecular Devices, Order No. R8160, the TR-FRET component will not be used) and PDE 2A or PDE10 protein expressed upon baculovirus infection in SF9 cells. The cells were incubated after infection for ˜3 days and protein production was confirmed by Western Blot. The cells were collected by centrifugation and the pellet frozen in liquid nitrogen before it was resuspended in PBS containing 1% Triton X-100 and protease inhibitors.
All reactions were performed in 384 well plates, Perkin Elmer black optiplates and IMAP reaction buffer with 0.1% Tween20 (kit component)
Compounds were serial diluted in DMSO. With an intermediate dilution step with reaction buffer DMSO concentration was reduced to achieve 1% DMSO in the assay reaction. Setup of the assay started with 10 μl enzyme (˜10 ng/well, depending on prep. batch), 5 μl compound, reaction was started by addition of 5 μl labeled cAMP (30 nM, final concentration), immediately mixed for 15 seconds on a Eppendorf mixmate (2000 rpm) followed by an incubation at room temperature for 90 minutes in the dark. Reaction is stopped by adding of 60 μl binding buffer for FP/cAMP (kit component).
Each assay plate contained wells with vehicle controls (1% DMSO) for the measurement of non-inhibited reaction (=100% control) and wells without enzyme as 0% controls.

PDE2A, sequence (O00408 whole entry, species assumed): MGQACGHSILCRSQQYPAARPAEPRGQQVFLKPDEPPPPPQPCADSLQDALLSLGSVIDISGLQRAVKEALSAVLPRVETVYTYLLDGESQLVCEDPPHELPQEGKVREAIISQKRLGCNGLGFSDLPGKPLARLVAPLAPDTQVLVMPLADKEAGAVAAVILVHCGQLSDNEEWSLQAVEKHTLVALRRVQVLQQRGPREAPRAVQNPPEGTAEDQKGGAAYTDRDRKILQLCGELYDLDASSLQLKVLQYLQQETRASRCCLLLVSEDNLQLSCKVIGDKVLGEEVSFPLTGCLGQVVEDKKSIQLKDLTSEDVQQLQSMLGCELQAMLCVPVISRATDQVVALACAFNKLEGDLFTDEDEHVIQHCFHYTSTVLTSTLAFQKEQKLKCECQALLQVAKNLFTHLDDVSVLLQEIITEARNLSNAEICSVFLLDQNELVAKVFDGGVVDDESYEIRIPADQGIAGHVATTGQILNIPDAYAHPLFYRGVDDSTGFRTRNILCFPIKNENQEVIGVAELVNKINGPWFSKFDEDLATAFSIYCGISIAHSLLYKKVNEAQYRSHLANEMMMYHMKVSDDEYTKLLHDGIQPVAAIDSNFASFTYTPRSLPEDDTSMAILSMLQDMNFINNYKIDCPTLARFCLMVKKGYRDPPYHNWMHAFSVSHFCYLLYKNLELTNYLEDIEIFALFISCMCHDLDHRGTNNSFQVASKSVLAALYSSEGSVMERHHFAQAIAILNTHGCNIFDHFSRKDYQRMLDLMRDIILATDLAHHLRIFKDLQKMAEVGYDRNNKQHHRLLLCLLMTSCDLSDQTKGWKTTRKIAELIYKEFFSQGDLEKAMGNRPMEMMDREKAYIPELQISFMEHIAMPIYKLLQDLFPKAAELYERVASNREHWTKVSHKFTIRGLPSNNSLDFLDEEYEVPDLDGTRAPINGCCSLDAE

As usually defined, the IC50 is the concentration at which inhibition is half-maximal. Regarding `Cc1nc2cccnc2n2c(-c3cc(C4(O)CCOC4)ccc3Cl)nnc12` (single isomer, unassigned) [Example 98], the IC50 in experiment [1] turned out to be 139 nM; in experiment [2] it was 1560 nM. The like results for `Cc1nc2cccnc2n2c(-c3cc(OCC4(O)CC4)ccc3Cl)nnc12` [Example 43a] were, in that order, 109 nM and 4510 nM.

In the case of `Cc1nc2ccc(C(F)(F)F)nc2n2c(-c3cc(OC4COCC4O)ccc3F)nnc12` (single isomer, unassigned) [Example 106b], the figures for the half-inhibitory concentration (IC50) in experiment [1] and in experiment [2] were 50 nM and 2500 nM, respectively.

In the case of `Cc1nc2ccc(C(F)(F)F)nc2n2c(-c3cc(C4(O)CCOCC4)ccc3Cl)nnc12` [Example 96], in experiment [1], the IC50 amounted to 43 nM. As to `CCCC(O)c1ccc(Cl)c(-c2nnc3c(C)nc4ccc(C)nc4n23)c1` (stereo not drawn) [Example 61], the concentration for half-maximal inhibition (IC50) in experiment [1] was 4 nM; in experiment [2] it was 534 nM. For the compound `Cc1nc2ccc(C(F)(F)F)nc2n2c(-c3cc(C4(O)CCOCC4)ccc3F)nnc12` [Example 96a], the IC50 in experiment [1] is 199 nM. In turn, `Cc1nc2ccc(C3CC3)nc2n2c(-c3cc(O)ccc3F)nnc12` [Example 5] displayed a half-inhibitory concentration (IC50) in experiment [2] of 5 nM. In the case of `Cc1nc2ccc(C(C)C)nc2n2c(-c3cc(C(C)(C)O)ccc3Cl)nnc12` [Example 77], in experiment [2], it took 1400 nM to reach half-maximal inhibition (IC50). `Cc1nc2ccc(C3CC3)nc2n2c(-c3cc(O)ccc3Cl)nnc12` [Example 9]: the concentration for half-maximal inhibition (IC50) in experiment [1] was 1 nM; in experiment [2], 15 nM.

Take `Cc1nc2ccc(C3CC3)nc2n2c(-c3cc(OC4CCOCC4O)ccc3Cl)nnc12` (single isomer, unassigned) [Example 109b]: the results for the IC50 in experiment [1] and in experiment [2] were 9 nM and 1090 nM, respectively. In the case of `Cc1nc2ccc(C3CC3)nc2n2c(-c3cc(OC4COCCC4O)ccc3F)nnc12` (single isomer, unassigned) [Example 108a], the IC50 in experiment [1] was […]. `Cc1nc2ccc(C(F)(F)F)nc2n2c(-c3cc(O)ccc3Cl)nnc12` [Example 12]: the concentration for half-maximal inhibition (IC50) in experiment [1] was 9 nM; in experiment [2] it was 44 nM.

On to `Cc1nc2ccc(C3CC3)nc2n2c(-c3cc(OC4CCOCC4O)ccc3Cl)nnc12` (single isomer, unassigned) [Example 109c], for which the half-inhibitory concentration (IC50) was 9 nM in experiment [1] and 1360 nM in experiment [2]. `Cc1nc2ccc(C3CC3)nc2n2c(-c3cc(C4(O)CCOC4)ccc3Cl)nnc12` (single isomer, unassigned) [Example 97a] displayed an IC50 in experiment [2] of 5940 nM. With `Cc1nc2ccc(C3CC3)nc2n2c(-c3cc(C4(O)CCOCC4)ccc3F)nnc12` [Example 95], the IC50 in experiment [1] came out at 5 nM; in experiment [2], 1370 nM.

Take `Cc1ccc2nc(C)c3nnc(-c4cc(CO)ccc4Cl)n3c2n1` [Example 60]: the IC50 in experiment [2] is 285 nM. As to `Cc1nc2ccc(C3CC3)nc2n2c(-c3cc(C4(O)CCOCC4)ccc3Cl)nnc12` [Example 94], the half-maximal inhibitory concentration (IC50) came to 1 nM in experiment [1] and 2720 nM in experiment [2].

For the compound `Cc1nc2cccnc2n2c(-c3cc(OCC4(O)CCC4)ccc3F)nnc12` [Example 53], the results for the concentration for half-maximal inhibition (IC50) in experiment [1] and in experiment [2] were 140 nM and 2830 nM, respectively.

Regarding `Cc1nc2ccc(C3CC3)nc2n2c(-c3cc(OC4COCCC4O)ccc3F)nnc12` (single isomer, unassigned) [Example 108b], the 50% inhibitory concentration (IC50) in experiment [1] was […]; in experiment [2] it was 594 nM. In turn, `Cc1nc2cccnc2n2c(-c3cc(CCC(C)(C)O)ccc3F)nnc12` [Example 65] came in with an IC50 in experiment [2] of 3540 nM. Turning to `Cc1ccc(O)cc1-c1nnc2c(C)nc3ccc(C(F)(F)F)nc3n12` [Example 12a], the IC50 in experiment [1] was 36 nM; in experiment [2], 170 nM. In turn, `Cc1nc2ccc(C3CC3)nc2n2c(-c3cc(C4(O)CCOC4)ccc3Cl)nnc12` (single isomer, unassigned) [Example 97b] gave a 50% inhibitory concentration (IC50) in experiment [2] of 891 nM. As to `Cc1ccc(C2(O)CCOCC2)cc1-c1nnc2c(C)nc3ccc(C(F)(F)F)nc3n12` [Example 96b], the 50% inhibitory concentration (IC50) in experiment [1] turned out to be 87 nM. In turn, `Cc1nc2ccc(C3CC3)nc2n2c(-c3cc(OC4CCOCC4O)ccc3F)nnc12` (single isomer, unassigned) [Example 108c] came in with an IC50 in experiment [2] of 262 nM. As to `Cc1ccc(C(C)(C)O)cc1-c1nnc2c(C)nc3cc(C(C)C)cnc3n12` [Example 79], in experiment [1], the IC50 worked out at 144 nM.

For the compound `Cc1nc2ccc(C3CC3)nc2n2c(-c3cc(OC4CCOCC4O)ccc3F)nnc12` (single isomer, unassigned) [Example 108d], the concentration for half-maximal inhibition (IC50) in experiment [2] worked out at 630 nM. For the compound `Cc1nc2ccc(C(C)C)nc2n2c(-c3cc(C4(O)CCC4)ccc3Cl)nnc12` [Example 91], the values for the IC50 in experiment [1] and in experiment [2] were 1 nM and 77 nM, respectively.

For the compound `Cc1nc2ccc(C3CC3)nc2n2c(-c3cc(C4(O)CCOCC4O)ccc3F)nnc12` (racemic) [Example 105], inhibition in experiment [2] was half-maximal at 1540 nM (IC50). As for `Cc1ccc(CC(C)(C)O)cc1-c1nnc2c(C)nc3ccc(C4CC4)nc3n12` [Example 81], the IC50 came out at 7 nM in experiment [1] and 5380 nM in experiment [2]. In the same order, the values of `Cc1nc2cccnc2n2c(-c3cc(C4(O)CCOC4)ccc3Cl)nnc12` (stereo not drawn) [Example 74] are 131 nM and 2340 nM. The like results for `Cc1nc2ccc(C(F)(F)F)nc2n2c(-c3cc(OC4COCC4O)ccc3F)nnc12` (single isomer, unassigned) [Example 106a] were, in that order, 429 nM and 1410 nM. In the case of `Cc1nc2ccc(C3CC3)nc2n2c(-c3cc(OC4COCC4O)ccc3Cl)nnc12` (racemic) [Example 56], half-maximal inhibition in experiment [2] (IC50) required 61 nM. With `Cc1ccc(C(C)(C)O)cc1-c1nnc2c(C)nc3ccc(C(C)C)nc3n12` [Example 78], the concentration for half-maximal inhibition (IC50) came out at 10 nM in experiment [1] and 2850 nM in experiment [2]. As to `Cc1nc2ccc(C3CC3)nc2n2c(-c3cc(C4(O)CCOC4)ccc3Cl)nnc12` (racemic) [Example 97], the 50% inhibitory concentration (IC50) in experiment [1] turned out to be 4 nM. Regarding `Cc1nc2ccc(C3CC3)nc2n2c(-c3cc(C(C)(C)CO)ccc3F)nnc12` [Example 101], the IC50 in experiment [2] worked out at 1130 nM.

Regarding `Cc1ccc(O)cc1-c1nnc2c(C)nc3ccc(C4CC4)nc3n12` [Example 6], the IC50 in experiment [1] was 3 nM; in experiment [2], 10 nM. The like results for `Cc1nc2cccnc2n2c(-c3cc(C4(O)CCC4)ccc3F)nnc12` [Example 86] were, in that order, 434 nM and 5750 nM. In the same order, the values of `Cc1ccc2nc(C)c3nnc(-c4cc(C5(O)CCC5)ccc4F)n3c2n1` [Example 90] are 103 nM and 485 nM. The like results for `Cc1nc2ccc(C3CC3)nc2n2c(-c3cc(OC4COCCC4O)ccc3Cl)nnc12` (single isomer, unassigned) [Example 109a] were, in that order, 14 nM and 1670 nM. Take `Cc1nc2ccc(C(F)(F)F)nc2n2c(-c3cc(OC4CCOCC4O)ccc3F)nnc12` (single isomer, unassigned) [Example 110d]: the 50% inhibitory concentration (IC50) in experiment [1] turned out to be 467 nM. On to `Cc1cnc2c(c1)nc(C)c1nnc(-c3cc(O)ccc3Cl)n12` [Example 11], for which the figures for the half-inhibitory concentration (IC50) in experiment [1] and in experiment [2] were 59 nM and 123 nM, respectively. With `Cc1nc2ccc(C(C)C)nc2n2c(-c3cc(C4(O)CCC4)ccc3F)nnc12` [Example 92], the IC50 amounted to 2 nM in experiment [1] and 553 nM in experiment [2].

For `Cc1ccc(O)cc1-c1nnc2c(C)nc3ccc(C(C)C)nc3n12` [Example 7], the IC50 in experiment [1] was found to be 3 nM; in experiment [2], 16 nM. In experiment [2], `Cc1nc2ccc(C(F)(F)F)nc2n2c(-c3cc(C4(O)CCOC4)ccc3F)nnc12` (stereo not drawn) [Example 96c] returned an IC50 of 7460 nM.
